# Results: ChEMBL document CHEMBL1157840, “Synthesis and the selective antifungal activity of 5,6,7,8-tetrahydroimidazo[1,2-a]pyridine derivatives” (Eur J Med Chem, 2010)
# System: Candida albicans
# Assay: Antifungal activity against Candida albicans clinical isolate after 24 hrs by broth microdilution assay
# Assay type: functional
# Settings: not given
row,MIC,SMILES
1,< 0.08 µg/mL,Clc1ccccc1C(c1ccccc1)(c1ccccc1)n1ccnc1 [CLOTRIMAZOLE]
2,0.032 µg/mL,Cc1ccc(/C=N/NC(=O)c2cn3c(n2)CCCC3)cc1
3,1 µg/mL,O=C(N/N=C/c1ccc(Br)cc1)c1cn2c(n1)CCCC2
4,0.032 µg/mL,N#Cc1ccc(/C=N/NC(=O)c2cn3c(n2)CCCC3)cc1
5,0.063 µg/mL,O=C(N/N=C/c1ccc2c(c1)OCO2)c1cn2c(n1)CCCC2

# System: Candida albicans
# Assay: Antifungal activity against Candida albicans ATCC 90028 after 24 hrs by broth microdilution assay
# Assay type: functional
# Settings: ATCC 90028, 24 h
row,MIC,SMILES
1,< 0.08 µg/mL,Clc1ccccc1C(c1ccccc1)(c1ccccc1)n1ccnc1 [CLOTRIMAZOLE]
2,> 0.25 µg/mL,Cc1ccc(/C=N/NC(=O)c2cn3c(n2)CCCC3)cc1
3,0.5 µg/mL,O=C(N/N=C/c1ccc(Br)cc1)c1cn2c(n1)CCCC2
4,0.063 µg/mL,N#Cc1ccc(/C=N/NC(=O)c2cn3c(n2)CCCC3)cc1
5,> 0.25 µg/mL,O=C(N/N=C/c1ccc2c(c1)OCO2)c1cn2c(n1)CCCC2

# System: Nakaseomyces glabratus
# Assay: Antifungal activity against Candida glabrata clinical isolate 1 after 24 hrs by broth microdilution assay
# Assay type: functional
# Settings: isolate 1, 24 h
row,MIC,SMILES
1,< 0.08 µg/mL,Clc1ccccc1C(c1ccccc1)(c1ccccc1)n1ccnc1 [CLOTRIMAZOLE]
2,> 0.25 µg/mL,Cc1ccc(/C=N/NC(=O)c2cn3c(n2)CCCC3)cc1
3,0.5 µg/mL,O=C(N/N=C/c1ccc(Br)cc1)c1cn2c(n1)CCCC2
4,0.032 µg/mL,N#Cc1ccc(/C=N/NC(=O)c2cn3c(n2)CCCC3)cc1
5,> 0.25 µg/mL,O=C(N/N=C/c1ccc2c(c1)OCO2)c1cn2c(n1)CCCC2

# System: Cyberlindnera jadinii
# Assay: Antifungal activity against Candida utilis NRRL Y-900 after 24 hrs by broth microdilution assay
# Assay type: functional
# Settings: Williopsis jadinii, NRRL Y-900, 24 h
row,MIC,SMILES
1,< 0.08 µg/mL,Clc1ccccc1C(c1ccccc1)(c1ccccc1)n1ccnc1 [CLOTRIMAZOLE]
2,> 0.25 µg/mL,Cc1ccc(/C=N/NC(=O)c2cn3c(n2)CCCC3)cc1
3,1 µg/mL,O=C(N/N=C/c1ccc(Br)cc1)c1cn2c(n1)CCCC2
4,0.032 µg/mL,N#Cc1ccc(/C=N/NC(=O)c2cn3c(n2)CCCC3)cc1
5,0.125 µg/mL,O=C(N/N=C/c1ccc2c(c1)OCO2)c1cn2c(n1)CCCC2

# System: Candida tropicalis
# Assay: Antifungal activity against Candida tropicalis NRRL Y-12968 after 24 hrs by broth microdilution assay
# Assay type: functional
# Settings: NRRL Y-12968, 24 h
row,MIC,SMILES
1,0.032 µg/mL,Clc1ccccc1C(c1ccccc1)(c1ccccc1)n1ccnc1 [CLOTRIMAZOLE]
2,0.125 µg/mL,Cc1ccc(/C=N/NC(=O)c2cn3c(n2)CCCC3)cc1
3,0.5 µg/mL,O=C(N/N=C/c1ccc(Br)cc1)c1cn2c(n1)CCCC2
4,< 0.016 µg/mL,N#Cc1ccc(/C=N/NC(=O)c2cn3c(n2)CCCC3)cc1
5,0.125 µg/mL,O=C(N/N=C/c1ccc2c(c1)OCO2)c1cn2c(n1)CCCC2

# System: Pichia kudriavzevii
# Assay: Antifungal activity against Candida krusei NRRL Y-7179 after 24 hrs by broth microdilution assay
# Assay type: functional
# Settings: NRRL Y-7179, 24 h
row,MIC,SMILES
1,< 0.08 µg/mL,Clc1ccccc1C(c1ccccc1)(c1ccccc1)n1ccnc1 [CLOTRIMAZOLE]
2,> 0.25 µg/mL,Cc1ccc(/C=N/NC(=O)c2cn3c(n2)CCCC3)cc1
3,0.25 µg/mL,O=C(N/N=C/c1ccc(Br)cc1)c1cn2c(n1)CCCC2
4,< 0.016 µg/mL,N#Cc1ccc(/C=N/NC(=O)c2cn3c(n2)CCCC3)cc1
5,> 0.25 µg/mL,O=C(N/N=C/c1ccc2c(c1)OCO2)c1cn2c(n1)CCCC2

# System: [Candida] zeylanoides
# Assay: Antifungal activity against Candida zeylanoides NRRL Y-1774 after 24 hrs by broth microdilution assay
# Assay type: functional
# Settings: Dujonia zeylanoides, NRRL Y-1774, 24 h
row,MIC,SMILES
1,0.125 µg/mL,Clc1ccccc1C(c1ccccc1)(c1ccccc1)n1ccnc1 [CLOTRIMAZOLE]
2,> 0.25 µg/mL,Cc1ccc(/C=N/NC(=O)c2cn3c(n2)CCCC3)cc1
3,1 µg/mL,O=C(N/N=C/c1ccc(Br)cc1)c1cn2c(n1)CCCC2
4,0.032 µg/mL,N#Cc1ccc(/C=N/NC(=O)c2cn3c(n2)CCCC3)cc1
5,> 0.25 µg/mL,O=C(N/N=C/c1ccc2c(c1)OCO2)c1cn2c(n1)CCCC2

# System: Candida parapsilosis
# Assay: Antifungal activity against Candida parapsilosis NRRL Y-12696 after 24 hrs by broth microdilution assay
# Assay type: functional
# Settings: Lodderomyces parapsilosis, NRRL Y-12696, 24 h
row,MIC,SMILES
1,< 0.08 µg/mL,Clc1ccccc1C(c1ccccc1)(c1ccccc1)n1ccnc1 [CLOTRIMAZOLE]
2,0.5 µg/mL,Cc1ccc(/C=N/NC(=O)c2cn3c(n2)CCCC3)cc1
3,1 µg/mL,O=C(N/N=C/c1ccc(Br)cc1)c1cn2c(n1)CCCC2
4,0.032 µg/mL,N#Cc1ccc(/C=N/NC(=O)c2cn3c(n2)CCCC3)cc1
5,> 0.25 µg/mL,O=C(N/N=C/c1ccc2c(c1)OCO2)c1cn2c(n1)CCCC2

# System: Candida albicans
# Assay: Antifungal activity against Candida albicans NRRL Y-12983 after 24 hrs by broth microdilution assay
# Assay type: functional
# Settings: NRRL Y-12983, 24 h
row,MIC,SMILES
1,< 0.08 µg/mL,Clc1ccccc1C(c1ccccc1)(c1ccccc1)n1ccnc1 [CLOTRIMAZOLE]
2,> 0.25 µg/mL,Cc1ccc(/C=N/NC(=O)c2cn3c(n2)CCCC3)cc1
3,0.125 µg/mL,O=C(N/N=C/c1ccc(Br)cc1)c1cn2c(n1)CCCC2
4,0.032 µg/mL,N#Cc1ccc(/C=N/NC(=O)c2cn3c(n2)CCCC3)cc1
5,> 0.25 µg/mL,O=C(N/N=C/c1ccc2c(c1)OCO2)c1cn2c(n1)CCCC2

# System: Nakaseomyces glabratus
# Assay: Antifungal activity against Candida glabrata clinical isolate 2 after 24 hrs by broth microdilution assay
# Assay type: functional
# Settings: not given
row,MIC,SMILES
1,< 0.08 µg/mL,Clc1ccccc1C(c1ccccc1)(c1ccccc1)n1ccnc1 [CLOTRIMAZOLE]
2,> 0.25 µg/mL,Cc1ccc(/C=N/NC(=O)c2cn3c(n2)CCCC3)cc1
3,0.25 µg/mL,O=C(N/N=C/c1ccc(Br)cc1)c1cn2c(n1)CCCC2
4,0.032 µg/mL,N#Cc1ccc(/C=N/NC(=O)c2cn3c(n2)CCCC3)cc1
5,> 0.25 µg/mL,O=C(N/N=C/c1ccc2c(c1)OCO2)c1cn2c(n1)CCCC2

# System: SK-MEL
# Assay: Cytotoxicity against human SK-MEL cells up to 25 ug/ml after 48 hrs by neutral red assay
# Assay type: cell-based
# Settings: not given
row,SMILES,Activity
1,Clc1ccccc1C(c1ccccc1)(c1ccccc1)n1ccnc1 [CLOTRIMAZOLE],Non-toxic
2,Cc1ccc(/C=N/NC(=O)c2cn3c(n2)CCCC3)cc1,Non-toxic
3,O=C(N/N=C/c1ccc(Br)cc1)c1cn2c(n1)CCCC2,Non-toxic
4,N#Cc1ccc(/C=N/NC(=O)c2cn3c(n2)CCCC3)cc1,Non-toxic
5,O=C(N/N=C/c1ccc2c(c1)OCO2)c1cn2c(n1)CCCC2,Non-toxic

# System: BT-549
# Assay: Cytotoxicity against human BT549 cells up to 25 ug/ml after 48 hrs by neutral red assay
# Assay type: cell-based
# Settings: bt-549, 48 h
row,SMILES,Activity
1,Clc1ccccc1C(c1ccccc1)(c1ccccc1)n1ccnc1 [CLOTRIMAZOLE],Non-toxic
2,Cc1ccc(/C=N/NC(=O)c2cn3c(n2)CCCC3)cc1,Non-toxic
3,O=C(N/N=C/c1ccc(Br)cc1)c1cn2c(n1)CCCC2,Non-toxic
4,N#Cc1ccc(/C=N/NC(=O)c2cn3c(n2)CCCC3)cc1,Non-toxic
5,O=C(N/N=C/c1ccc2c(c1)OCO2)c1cn2c(n1)CCCC2,Non-toxic

# System: SK-OV-3
# Assay: Cytotoxicity against human SKOV3 cells up to 25 ug/ml after 48 hrs by neutral red assay
# Assay type: cell-based
# Settings: sk-ov-3, 48 h
row,SMILES,Activity
1,Clc1ccccc1C(c1ccccc1)(c1ccccc1)n1ccnc1 [CLOTRIMAZOLE],Non-toxic
2,Cc1ccc(/C=N/NC(=O)c2cn3c(n2)CCCC3)cc1,Non-toxic
3,O=C(N/N=C/c1ccc(Br)cc1)c1cn2c(n1)CCCC2,Non-toxic
4,N#Cc1ccc(/C=N/NC(=O)c2cn3c(n2)CCCC3)cc1,Non-toxic
5,O=C(N/N=C/c1ccc2c(c1)OCO2)c1cn2c(n1)CCCC2,Non-toxic

# System: Vero
# Assay: Cytotoxicity against african green monkey Vero cells up to 25 ug/ml after 48 hrs by neutral red assay
# Assay type: cell-based
# Settings: chlorocebus sabaeus
row,SMILES,Activity
1,Clc1ccccc1C(c1ccccc1)(c1ccccc1)n1ccnc1 [CLOTRIMAZOLE],Non-toxic
2,Cc1ccc(/C=N/NC(=O)c2cn3c(n2)CCCC3)cc1,Non-toxic
3,O=C(N/N=C/c1ccc(Br)cc1)c1cn2c(n1)CCCC2,Non-toxic
4,N#Cc1ccc(/C=N/NC(=O)c2cn3c(n2)CCCC3)cc1,Non-toxic
5,O=C(N/N=C/c1ccc2c(c1)OCO2)c1cn2c(n1)CCCC2,Non-toxic

# System: not listed separately
# Assay: Cytotoxicity against african pig LLC-PK11 up to 25 ug/ml after 48 hrs by neutral red assay
# Design: species or system Sus scrofa
# Settings: not given
row,SMILES,Activity
1,Clc1ccccc1C(c1ccccc1)(c1ccccc1)n1ccnc1 [CLOTRIMAZOLE],Non-toxic
2,Cc1ccc(/C=N/NC(=O)c2cn3c(n2)CCCC3)cc1,Non-toxic
3,O=C(N/N=C/c1ccc(Br)cc1)c1cn2c(n1)CCCC2,Non-toxic
4,N#Cc1ccc(/C=N/NC(=O)c2cn3c(n2)CCCC3)cc1,Non-toxic
5,O=C(N/N=C/c1ccc2c(c1)OCO2)c1cn2c(n1)CCCC2,Non-toxic
